According to patent US7615651B2, “Diaryl, dipyridinyl and aryl-pyridinyl derivatives and uses thereof” (Pfizer Inc., priority 2006, dated 2009):
Read-outs that look alike come from different tables or passages of the source.

Key:
Assay type in all cases: biochemical
[1] = target: T1, opioid receptor kappa (Homo sapiens, UniProt P41145); assay: GTPγ[35S] binding assay, antagonism of dynorphin-A
T1 construct: expressed in transfected cells
Summary of the method: (§1)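 Membranes with […] GTPγ[35S] in Tris pH 7.4 buffer with MgCl2, NaCl, 30 μM GDP; antagonist (10^−10–10^−5 M) preincubated 10 min at 30 °C, then challenged with BW-373U86 1 nM (delta), dynorphin-A 10 nM (kappa) or endorphin 1 μM (mu) for 1 h at 30 °C. Scintillation read-out; Ki derived.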

[2] = target: T2, opioid receptor delta (Homo sapiens, UniProt P41143); assay: GTPγ[35S] binding assay, antagonism of BW-373U86
T2 construct: expressed in transfected cells
T2 sequence (P41143 whole entry): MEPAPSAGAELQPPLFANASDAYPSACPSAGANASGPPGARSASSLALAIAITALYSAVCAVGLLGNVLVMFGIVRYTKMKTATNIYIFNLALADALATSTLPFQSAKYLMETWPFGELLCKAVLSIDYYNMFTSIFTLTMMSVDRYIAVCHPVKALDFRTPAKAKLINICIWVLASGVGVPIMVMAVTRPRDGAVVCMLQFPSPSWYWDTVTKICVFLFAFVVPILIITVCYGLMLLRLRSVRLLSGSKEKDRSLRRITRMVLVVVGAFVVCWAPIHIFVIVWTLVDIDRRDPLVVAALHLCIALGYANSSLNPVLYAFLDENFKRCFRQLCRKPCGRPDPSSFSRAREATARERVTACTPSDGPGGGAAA
Summary of the method: as §1

[3] = target: T3, opioid receptor mu (Homo sapiens, UniProt P35372); assay: GTPγ[35S] binding assay, antagonism of endorphin
T3 construct: expressed in transfected cells
T3 sequence (P35372 whole entry): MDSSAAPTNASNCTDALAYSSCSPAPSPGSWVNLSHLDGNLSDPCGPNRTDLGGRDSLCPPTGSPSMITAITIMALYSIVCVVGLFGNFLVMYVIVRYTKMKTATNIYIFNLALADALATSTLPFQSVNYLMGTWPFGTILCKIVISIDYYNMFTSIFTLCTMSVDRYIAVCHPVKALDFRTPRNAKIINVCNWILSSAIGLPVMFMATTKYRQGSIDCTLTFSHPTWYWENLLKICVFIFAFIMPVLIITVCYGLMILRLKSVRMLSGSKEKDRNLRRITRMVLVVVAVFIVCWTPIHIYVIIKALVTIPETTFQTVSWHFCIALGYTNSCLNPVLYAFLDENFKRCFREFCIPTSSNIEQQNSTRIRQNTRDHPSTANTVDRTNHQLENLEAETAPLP
Summary of the method: as §1

[4] = average Ki, antagonism of dynorphin-A (10 nM) at kappa opioid receptor membranes, read-out: Kappa functional Ki (GTPγ[35S] binding)
[5] = average Ki, antagonism of BW-373U86 (1 nM) at delta opioid receptor membranes, read-out: Delta functional Ki (GTPγ[35S] binding)
[6] = average Ki, antagonism of endorphin (1 μM) at mu opioid receptor membranes, read-out: Mu functional Ki (GTPγ[35S] binding)
[7] = read-out: Kappa functional Ki (GTPγ[35S] binding)
[8] = read-out: Delta functional Ki (GTPγ[35S] binding)
[9] = read-out: Mu functional Ki (GTPγ[35S] binding)
[10] = average Ki, antagonism of dynorphin-A (10 nM) stimulated GTPγ[35S] binding, kappa opioid receptor membranes, read-out: Kappa functional (GTPγ[35S] binding Ki)
[11] = average Ki, antagonism of BW-373U86 (1 nM) stimulated GTPγ[35S] binding, delta opioid receptor membranes, read-out: Delta functional (GTPγ[35S] binding Ki)
[12] = average Ki, antagonism of endorphin (1 μM) stimulated GTPγ[35S] binding, mu opioid receptor membranes, read-out: Mu functional (GTPγ[35S] binding Ki)
[13] = read-out: Kappa functional (GTPγ[35S] binding Ki)
[14] = read-out: Delta functional (GTPγ[35S] binding Ki)
[15] = read-out: Mu functional (GTPγ[35S] binding Ki)

T1 sequence (P41145 whole entry): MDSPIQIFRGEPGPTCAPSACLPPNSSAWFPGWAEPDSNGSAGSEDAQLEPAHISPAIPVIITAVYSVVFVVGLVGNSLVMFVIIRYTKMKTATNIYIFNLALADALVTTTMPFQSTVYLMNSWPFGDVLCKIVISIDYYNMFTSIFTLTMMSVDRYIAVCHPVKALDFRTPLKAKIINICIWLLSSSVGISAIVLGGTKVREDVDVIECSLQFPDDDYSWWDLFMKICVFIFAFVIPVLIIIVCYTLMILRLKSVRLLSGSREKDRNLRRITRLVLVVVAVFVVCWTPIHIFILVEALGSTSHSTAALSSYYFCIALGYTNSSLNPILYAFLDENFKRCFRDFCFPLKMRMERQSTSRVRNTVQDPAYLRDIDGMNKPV

SMILES	Ki [1, 7] [nM]	Ki [2, 8] [nM]	Ki [3, 9] [nM]	Ki [1, 13] [nM]	Ki [2, 14] [nM]	Ki [3, 15] [nM]	further results
CC1(C)OCC(CNCc2ccc(-c3ccc(C(N)=O)cc3Cl)c(Cl)c2)O1 (stereo not drawn) [4B-79]							Ki [1, 4]: 128 nM; Ki [2, 5]: 1.42 nM; Ki [3, 6]: 228 nM
Cc1cc(C(N)=O)ccc1-c1ccc(CNCC2CCOCC2)cc1 [4B-40]	9.05	20.4	48.3				
CC(C)CCNCc1ccc(-c2cc(-c3ncn[nH]3)ccc2F)cc1 [7A-02]							Ki [1, 4]: 1.77 nM; Ki [2, 5]: 5.26 nM; Ki [3, 6]: 1.59 nM
Cc1cc(C(N)=O)ccc1-c1ccc(CNCCC(C)C)nc1 [1D-01]							Ki [1, 10]: 17.1 nM; Ki [2, 11]: 11.7 nM; Ki [3, 12]: 20.5 nM
CC(C)CCNCc1ccc(-c2cc(-c3ncn[nH]3)ccc2F)c(F)c1 [7A-03]	2.71	12.5	4.07				
NC(=O)c1ccc(-c2ccc(CNC3Cc4ccccc4C3)nc2)c(Cl)c1 [1D-05]				4.96	4.85	1.85	
NC(=O)c1cnc(-c2ccc(CNC3Cc4ccccc4C3)cc2)c(Cl)c1 [4C-02]	1.95	1.95	0.489				
Cc1cc(C(N)=O)ccc1-c1ccc(CNCCOc2ccccc2)cc1 [4B-16]				7.65	0.751	2.82	
CC[C@@H](NCc1c(F)cc(-c2ccc(C(N)=O)cc2C)cc1F)c1ccccn1 [4B-52]	7.01	15.4	138				
NC(=O)c1cc(-c2ccc(CNC3Cc4ccccc4C3)cc2)ccc1F [4A-03]				60.2	51.9	25.2	
NC(=O)c1ccc(-c2ccc(CNCCC3CCOCC3)cc2)c(Cl)c1 [4B-37]	4.61	60.3	13.7				
CC(C)CCNCc1cc(F)c(-c2cc(C(N)=O)ccc2F)cc1F [1A-09]							Ki [1, 10]: 51.1 nM; Ki [2, 11]: 16.7 nM; Ki [3, 12]: 64.8 nM
Cc1cc(C(N)=O)ccc1-c1ccc(CNCCc2ccccc2)cc1 [4B-09]				6.19	1.82	2.73	
Cc1cc(C(N)=O)ccc1-c1ccc(CNCc2ccc3c(c2)CC(C)(C)O3)cc1 [4B-18]				18.7	2.46	5.72	
Cc1cc(C(N)=O)ccc1-c1ccc(CNCc2ccccc2)cc1 [4B-03]				1.84	4	3.13	
Cc1cc(C(N)=O)ccc1-c1ccc(CNCC2CCOCC2)c(F)c1 [4B-56]	9.04	8.44	36.8				
Cc1cc(C(N)=O)ccc1-c1ccc(CNC(C)(C)c2cccc(Cl)c2)cc1 [4B-25]				6.11	22.6	37.6	
CC(C)CCNCc1ccc(-c2cccc(C(N)=O)c2)cc1 [4A-01]							Ki [1, 10]: 26.9 nM; Ki [2, 11]: 15.7 nM; Ki [3, 12]: 32.8 nM
NC(=O)c1ccc(-c2ccc(CNCCC3CCCCO3)cc2Cl)c(Cl)c1 (stereo not drawn) [4B-69]	4.54	4.09	2.78				
Cc1cc(C(N)=O)cc(C)c1-c1ccc(CNC2Cc3ccccc3C2)cc1 [4B-32]				0.14	0.0696	0.0492	
CCOCCNCc1ccc(-c2cccc(C(N)=O)c2)c(Cl)c1 [6A-01]							Ki [1, 4]: 41.6 nM; Ki [2, 5]: 25.5 nM; Ki [3, 6]: 12.8 nM
CC(C)CCNCc1ccc(-c2ccc(C(N)=O)cc2Cl)cc1F [4B-64]	3.97	5.64	12.1				
NC(=O)c1cccc(-c2ccc(CNCC3CCCOC3)cc2Cl)c1 (stereo not drawn) [4A-06]				14.7	23.6	12.5	
Cc1cc(C(N)=O)ccc1-c1cc(F)c(CNCCC2CCOCC2)c(F)c1 [4B-51]	1.95	0.707	2.16				
Cc1cc(C(N)=O)ccc1-c1ccc(CNCc2cccc(F)c2)cc1 [4B-17]				1.21	1.13	2.56	
CC(C)CCNCc1ccc(-c2cc(F)cc(C(N)=O)c2)cc1 [4A-04]							Ki [1, 10]: 60.1 nM; Ki [2, 11]: 21.4 nM; Ki [3, 12]: 92.1 nM
